Source: publication PMC8213057, “Targeting ALK2: An Open Science Approach to Developing Therapeutics for the Treatment of Diffuse Intrinsic Pontine Glioma” (Journal of Medicinal Chemistry, 2020)
pIC50: −log10 of the molar value. Several values for one entry are separate records, joined by “and”; a condition that tells them apart may be missing. Equal values may be shown once.

Columns and labels:
[1] = biological target: T1, CYP2C8 (Homo sapiens, UniProt P10632); assay: CYP inhibition assay; assay type: in vitro ADME; conditions: human liver microsomes
T1 construct: tissue Corning 452117; host or cells: pooled human liver microsomes (UltraPool HLM 150, mixed gender)

[2] = biological target: MEKK1 (Homo sapiens, UniProt Q13233); conditions: 1 μM; Run 1, Run 2
[3] = biological target: MST3/STK24 (Homo sapiens, UniProt Q9Y6E0); assay: biochemical; conditions: read-out: % enzyme activity, 1 μM; Run 1, Run 2
[4] = biological target: T2, EPHB1 (Homo sapiens, UniProt P54762); assay: biochemical; conditions: read-out: % enzyme activity, 1 μM; Run 1, Run 2
T2 sequence (P54762 18-984): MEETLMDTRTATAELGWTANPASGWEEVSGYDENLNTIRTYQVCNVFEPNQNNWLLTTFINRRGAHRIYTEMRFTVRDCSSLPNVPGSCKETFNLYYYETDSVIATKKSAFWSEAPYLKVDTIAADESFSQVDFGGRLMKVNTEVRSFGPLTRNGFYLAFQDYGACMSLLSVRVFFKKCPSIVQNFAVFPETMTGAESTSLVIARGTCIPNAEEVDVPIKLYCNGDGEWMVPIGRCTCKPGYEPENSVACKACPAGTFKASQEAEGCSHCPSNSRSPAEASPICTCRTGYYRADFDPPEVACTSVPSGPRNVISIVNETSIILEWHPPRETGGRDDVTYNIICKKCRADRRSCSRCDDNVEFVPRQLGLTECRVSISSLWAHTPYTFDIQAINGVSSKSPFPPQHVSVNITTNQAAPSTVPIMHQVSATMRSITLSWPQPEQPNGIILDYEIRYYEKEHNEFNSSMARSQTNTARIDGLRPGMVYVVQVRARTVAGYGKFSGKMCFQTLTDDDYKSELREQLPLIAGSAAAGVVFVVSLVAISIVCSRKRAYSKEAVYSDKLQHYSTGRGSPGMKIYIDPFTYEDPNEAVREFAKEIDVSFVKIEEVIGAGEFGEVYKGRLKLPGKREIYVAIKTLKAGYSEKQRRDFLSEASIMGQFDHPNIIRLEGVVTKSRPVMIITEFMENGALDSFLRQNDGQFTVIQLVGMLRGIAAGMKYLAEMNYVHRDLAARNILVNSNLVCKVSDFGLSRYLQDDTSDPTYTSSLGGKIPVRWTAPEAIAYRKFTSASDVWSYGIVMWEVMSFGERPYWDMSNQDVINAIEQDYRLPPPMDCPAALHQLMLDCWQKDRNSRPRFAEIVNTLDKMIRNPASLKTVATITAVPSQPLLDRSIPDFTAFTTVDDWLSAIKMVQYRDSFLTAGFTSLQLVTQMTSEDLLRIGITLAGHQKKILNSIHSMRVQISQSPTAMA

[5] = biological target: c-MET (Homo sapiens, UniProt P08581); assay: biochemical; conditions: read-out: % enzyme activity, 1 μM; Run 1, Run 2
[6] = system: MINK/MINK1
[7] = biological target: T3, PKCmu/PRKD1 (Homo sapiens, UniProt Q15139); conditions: 1 μM; Run 1, Run 2
T3 sequence (Q15139 1-912): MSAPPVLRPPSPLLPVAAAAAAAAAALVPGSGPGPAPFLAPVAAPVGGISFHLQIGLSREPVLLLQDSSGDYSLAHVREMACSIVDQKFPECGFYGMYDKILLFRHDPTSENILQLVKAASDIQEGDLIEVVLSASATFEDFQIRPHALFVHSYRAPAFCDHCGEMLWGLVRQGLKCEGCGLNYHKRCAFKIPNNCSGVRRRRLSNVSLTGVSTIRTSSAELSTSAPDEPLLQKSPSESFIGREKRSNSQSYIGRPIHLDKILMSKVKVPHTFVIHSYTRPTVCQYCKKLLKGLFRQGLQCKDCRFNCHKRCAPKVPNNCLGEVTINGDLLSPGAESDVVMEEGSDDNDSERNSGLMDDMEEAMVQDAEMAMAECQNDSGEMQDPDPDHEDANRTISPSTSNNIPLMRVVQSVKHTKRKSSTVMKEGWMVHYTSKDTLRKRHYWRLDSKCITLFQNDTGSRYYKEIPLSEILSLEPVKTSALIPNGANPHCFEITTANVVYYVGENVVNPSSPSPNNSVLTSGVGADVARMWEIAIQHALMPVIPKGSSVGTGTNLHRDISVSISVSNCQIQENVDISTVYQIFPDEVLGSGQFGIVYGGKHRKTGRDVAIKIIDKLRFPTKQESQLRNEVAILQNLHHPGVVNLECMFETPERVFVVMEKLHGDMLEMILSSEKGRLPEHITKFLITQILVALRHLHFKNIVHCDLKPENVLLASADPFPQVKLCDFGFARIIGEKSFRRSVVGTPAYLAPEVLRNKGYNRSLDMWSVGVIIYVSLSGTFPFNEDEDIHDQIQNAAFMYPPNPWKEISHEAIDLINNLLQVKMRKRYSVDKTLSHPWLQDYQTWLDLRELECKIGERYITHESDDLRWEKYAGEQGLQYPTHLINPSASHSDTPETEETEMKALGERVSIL

[8] = biological target: HCK (Homo sapiens, UniProt P08631); conditions: 1 μM; Run 1, Run 2
[9] = biological target: MYO3A (Homo sapiens, UniProt Q8NEV4); assay: biochemical; conditions: read-out: % enzyme activity, 1 μM; Run 1, Run 2
[10] = biological target: T4, MKK6 (Homo sapiens, UniProt P52564); assay: biochemical; conditions: read-out: % enzyme activity, 1 μM; Run 1, Run 2
T4 sequence (P52564 1-334): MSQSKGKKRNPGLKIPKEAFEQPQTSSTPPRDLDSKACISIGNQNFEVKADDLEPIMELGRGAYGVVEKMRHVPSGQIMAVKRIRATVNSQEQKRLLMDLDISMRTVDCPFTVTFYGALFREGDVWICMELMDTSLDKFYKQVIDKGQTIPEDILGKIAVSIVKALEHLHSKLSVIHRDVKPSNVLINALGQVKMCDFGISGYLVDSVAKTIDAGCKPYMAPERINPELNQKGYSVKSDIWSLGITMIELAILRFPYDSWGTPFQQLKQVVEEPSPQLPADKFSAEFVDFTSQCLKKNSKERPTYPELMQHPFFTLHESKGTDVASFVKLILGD

[11] = biological target: GSK3a (Homo sapiens, UniProt P49840); conditions: 1 μM; Run 1, Run 2
Sequence of GSK3a (P49840 whole entry): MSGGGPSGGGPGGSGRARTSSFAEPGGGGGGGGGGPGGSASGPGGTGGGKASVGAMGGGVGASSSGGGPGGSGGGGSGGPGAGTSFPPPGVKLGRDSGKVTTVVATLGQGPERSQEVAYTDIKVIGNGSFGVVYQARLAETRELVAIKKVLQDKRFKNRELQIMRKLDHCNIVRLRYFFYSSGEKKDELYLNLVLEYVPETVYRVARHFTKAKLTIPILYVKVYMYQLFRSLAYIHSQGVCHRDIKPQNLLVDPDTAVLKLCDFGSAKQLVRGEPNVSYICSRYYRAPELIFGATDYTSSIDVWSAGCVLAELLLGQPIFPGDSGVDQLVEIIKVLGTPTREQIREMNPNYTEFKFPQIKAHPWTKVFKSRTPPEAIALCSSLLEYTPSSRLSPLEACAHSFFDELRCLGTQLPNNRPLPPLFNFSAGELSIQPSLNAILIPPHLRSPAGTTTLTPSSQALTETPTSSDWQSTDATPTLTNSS

Sequence of c-MET (P08581 25-1390): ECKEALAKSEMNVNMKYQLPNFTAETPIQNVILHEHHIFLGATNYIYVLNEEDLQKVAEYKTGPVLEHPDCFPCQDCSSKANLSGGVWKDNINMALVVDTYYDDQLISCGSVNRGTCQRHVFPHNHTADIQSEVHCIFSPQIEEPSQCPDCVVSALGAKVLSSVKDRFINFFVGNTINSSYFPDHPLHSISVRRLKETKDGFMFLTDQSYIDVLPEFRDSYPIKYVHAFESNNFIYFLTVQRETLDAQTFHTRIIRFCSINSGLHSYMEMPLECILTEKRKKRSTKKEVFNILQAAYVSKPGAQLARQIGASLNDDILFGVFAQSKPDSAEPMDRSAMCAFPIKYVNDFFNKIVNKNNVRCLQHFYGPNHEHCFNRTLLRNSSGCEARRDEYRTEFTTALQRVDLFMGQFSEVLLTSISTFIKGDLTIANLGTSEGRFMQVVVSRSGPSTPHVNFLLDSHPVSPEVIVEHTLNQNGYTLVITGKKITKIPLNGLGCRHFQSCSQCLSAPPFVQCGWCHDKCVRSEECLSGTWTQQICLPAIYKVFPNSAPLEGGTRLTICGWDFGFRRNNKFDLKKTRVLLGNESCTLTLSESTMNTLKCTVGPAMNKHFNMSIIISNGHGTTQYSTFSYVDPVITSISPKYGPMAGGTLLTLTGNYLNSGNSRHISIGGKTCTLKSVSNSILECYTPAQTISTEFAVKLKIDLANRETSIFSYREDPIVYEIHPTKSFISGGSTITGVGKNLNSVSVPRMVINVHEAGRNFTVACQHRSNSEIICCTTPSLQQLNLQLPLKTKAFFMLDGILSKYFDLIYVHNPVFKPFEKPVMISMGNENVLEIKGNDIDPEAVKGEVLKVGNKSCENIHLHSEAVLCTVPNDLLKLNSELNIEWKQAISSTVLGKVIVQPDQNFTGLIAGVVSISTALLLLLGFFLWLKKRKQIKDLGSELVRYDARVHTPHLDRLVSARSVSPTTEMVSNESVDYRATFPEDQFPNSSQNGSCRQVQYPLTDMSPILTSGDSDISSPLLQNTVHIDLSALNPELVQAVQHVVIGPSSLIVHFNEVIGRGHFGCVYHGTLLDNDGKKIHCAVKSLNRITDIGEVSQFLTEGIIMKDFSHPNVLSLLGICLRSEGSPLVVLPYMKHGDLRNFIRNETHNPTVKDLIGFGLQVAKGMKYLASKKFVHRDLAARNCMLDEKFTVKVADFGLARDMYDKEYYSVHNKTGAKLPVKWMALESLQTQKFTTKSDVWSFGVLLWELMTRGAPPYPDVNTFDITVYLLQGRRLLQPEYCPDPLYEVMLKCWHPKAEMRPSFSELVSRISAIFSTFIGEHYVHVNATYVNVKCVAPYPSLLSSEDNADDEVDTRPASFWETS
Sequence of MYO3A (Q8NEV4 whole entry): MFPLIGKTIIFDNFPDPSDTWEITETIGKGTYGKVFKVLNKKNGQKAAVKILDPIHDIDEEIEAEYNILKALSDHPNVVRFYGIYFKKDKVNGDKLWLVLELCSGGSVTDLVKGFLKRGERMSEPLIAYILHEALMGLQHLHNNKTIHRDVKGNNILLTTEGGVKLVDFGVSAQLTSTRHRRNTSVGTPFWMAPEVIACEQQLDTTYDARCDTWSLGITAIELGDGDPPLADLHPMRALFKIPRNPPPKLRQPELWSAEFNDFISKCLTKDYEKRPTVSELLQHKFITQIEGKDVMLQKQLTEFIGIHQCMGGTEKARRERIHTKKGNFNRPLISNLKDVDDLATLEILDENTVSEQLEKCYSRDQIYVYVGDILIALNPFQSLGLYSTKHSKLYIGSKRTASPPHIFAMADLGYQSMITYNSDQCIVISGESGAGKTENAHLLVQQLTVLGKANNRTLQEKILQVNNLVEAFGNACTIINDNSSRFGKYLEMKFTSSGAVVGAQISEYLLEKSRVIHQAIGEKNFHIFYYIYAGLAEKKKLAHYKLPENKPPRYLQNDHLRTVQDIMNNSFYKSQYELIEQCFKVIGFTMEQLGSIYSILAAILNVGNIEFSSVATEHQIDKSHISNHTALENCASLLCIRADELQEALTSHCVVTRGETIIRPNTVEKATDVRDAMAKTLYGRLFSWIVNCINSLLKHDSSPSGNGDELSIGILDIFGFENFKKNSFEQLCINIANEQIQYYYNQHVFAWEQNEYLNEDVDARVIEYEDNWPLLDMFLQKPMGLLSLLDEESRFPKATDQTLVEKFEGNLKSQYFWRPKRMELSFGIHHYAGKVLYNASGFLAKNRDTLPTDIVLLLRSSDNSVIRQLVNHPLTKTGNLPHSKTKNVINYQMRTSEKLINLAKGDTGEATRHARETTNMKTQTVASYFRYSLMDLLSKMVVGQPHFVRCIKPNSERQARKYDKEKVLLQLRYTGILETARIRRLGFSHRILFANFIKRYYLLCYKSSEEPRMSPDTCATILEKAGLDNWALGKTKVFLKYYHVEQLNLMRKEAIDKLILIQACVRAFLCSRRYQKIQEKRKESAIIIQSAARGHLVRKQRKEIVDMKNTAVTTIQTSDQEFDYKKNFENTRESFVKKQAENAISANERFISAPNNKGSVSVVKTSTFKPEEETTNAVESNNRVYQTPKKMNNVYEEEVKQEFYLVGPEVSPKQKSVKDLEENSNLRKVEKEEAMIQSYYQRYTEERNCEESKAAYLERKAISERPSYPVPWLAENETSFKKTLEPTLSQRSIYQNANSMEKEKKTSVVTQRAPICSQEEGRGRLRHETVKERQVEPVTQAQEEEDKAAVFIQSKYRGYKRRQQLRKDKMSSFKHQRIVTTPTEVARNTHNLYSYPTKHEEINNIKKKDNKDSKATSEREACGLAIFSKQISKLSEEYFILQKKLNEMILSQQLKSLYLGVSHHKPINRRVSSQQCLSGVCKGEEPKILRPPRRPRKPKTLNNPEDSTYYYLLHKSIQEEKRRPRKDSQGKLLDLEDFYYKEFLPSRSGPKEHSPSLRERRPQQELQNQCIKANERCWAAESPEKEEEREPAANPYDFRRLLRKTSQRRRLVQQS
Sequence of MEKK1 (Q13233 whole entry): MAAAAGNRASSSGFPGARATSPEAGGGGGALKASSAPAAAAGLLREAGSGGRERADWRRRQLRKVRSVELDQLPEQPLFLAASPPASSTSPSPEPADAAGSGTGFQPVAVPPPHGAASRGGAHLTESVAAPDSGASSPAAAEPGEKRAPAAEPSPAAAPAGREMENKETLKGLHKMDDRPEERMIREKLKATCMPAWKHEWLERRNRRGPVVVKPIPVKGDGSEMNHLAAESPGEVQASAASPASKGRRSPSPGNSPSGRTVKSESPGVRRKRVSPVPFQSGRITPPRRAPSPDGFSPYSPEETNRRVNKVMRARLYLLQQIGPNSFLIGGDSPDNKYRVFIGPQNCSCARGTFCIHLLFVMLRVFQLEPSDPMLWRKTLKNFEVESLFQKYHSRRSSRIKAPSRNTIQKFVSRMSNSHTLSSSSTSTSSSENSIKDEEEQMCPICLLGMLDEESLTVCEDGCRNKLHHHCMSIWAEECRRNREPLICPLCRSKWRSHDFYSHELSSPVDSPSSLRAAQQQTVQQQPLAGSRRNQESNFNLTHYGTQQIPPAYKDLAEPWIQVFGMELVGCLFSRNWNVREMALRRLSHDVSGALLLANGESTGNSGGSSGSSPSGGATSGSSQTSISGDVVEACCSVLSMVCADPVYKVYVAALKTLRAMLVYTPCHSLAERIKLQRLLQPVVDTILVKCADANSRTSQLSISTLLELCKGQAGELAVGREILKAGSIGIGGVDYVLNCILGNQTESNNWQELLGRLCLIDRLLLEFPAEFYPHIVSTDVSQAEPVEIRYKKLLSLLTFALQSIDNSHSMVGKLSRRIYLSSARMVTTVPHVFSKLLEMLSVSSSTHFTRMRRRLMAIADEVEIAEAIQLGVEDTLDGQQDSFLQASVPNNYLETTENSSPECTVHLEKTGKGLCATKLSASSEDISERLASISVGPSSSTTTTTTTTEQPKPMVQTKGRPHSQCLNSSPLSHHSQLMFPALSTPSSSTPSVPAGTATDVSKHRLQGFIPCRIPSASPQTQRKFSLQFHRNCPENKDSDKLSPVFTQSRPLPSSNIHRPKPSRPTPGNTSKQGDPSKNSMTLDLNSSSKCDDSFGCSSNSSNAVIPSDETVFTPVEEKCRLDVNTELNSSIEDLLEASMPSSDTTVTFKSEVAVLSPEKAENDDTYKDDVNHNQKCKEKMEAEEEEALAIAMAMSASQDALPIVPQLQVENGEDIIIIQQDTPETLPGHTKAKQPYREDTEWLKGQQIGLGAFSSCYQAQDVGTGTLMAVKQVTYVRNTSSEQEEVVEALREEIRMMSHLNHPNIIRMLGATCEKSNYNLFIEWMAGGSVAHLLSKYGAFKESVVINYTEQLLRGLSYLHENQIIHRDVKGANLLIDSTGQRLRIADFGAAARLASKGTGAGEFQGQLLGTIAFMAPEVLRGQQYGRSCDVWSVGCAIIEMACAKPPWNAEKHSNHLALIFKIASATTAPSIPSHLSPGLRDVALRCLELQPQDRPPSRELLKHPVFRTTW

Row | SMILES | pIC50 [1] | % enzyme activity [2] [%] | remaining activity at 1 µM [3] [%] | remaining activity at 1 µM [4] [%] | remaining activity at 1 µM [5] [%] | % enzyme activity at 1 μM [6] | % enzyme activity [7] [%] | % enzyme activity [8] [%] | remaining activity at 1 µM [9] [%] | remaining activity at 1 µM [10] [%] | % enzyme activity [11] [%]
1 | COc1cc(-c2cncc(-c3ccc(N4CCN(C)CC4)cc3)c2C)cc(F)c1C(N)=O [Compound 26a, 2-Fluoro-6-methoxy-4-(4-methyl-5-(4-(4-methylpiperazin-1-yl)phenyl)pyridin-3-yl)benzamide] | < 4.30 | 92.92 | 90.2 | 95.5 | 100 | 24.1% and 22.6% | 88.26 | 91.96 | 84 | 84.4 | 100.80
2 | COc1cc(-c2cncc(-c3ccc(N4C[C@@H](C)N(C)[C@@H](C)C4)cc3)c2C)cc(F)c1C(N)=O [Compound 26c, 2-Fluoro-6-methoxy-4-(4-methyl-5-(4-((3R,5S)-3,4,5-trimethylpiperazin-1-yl)phenyl)pyridin-3-yl)benzamide] | < 4.30 | 97.31 | 96.3 | 92.6 | 107 | 30.2% and 29.6% | 95.09 | 88.06 | 94.7 | 79.7 | 101.44
